The test system of series [1] is HT-29 xenografts. Briefly: HT-29 xenograft growth. It counts as in vivo, nu/nu nude mice. Particulars: Table 3B; HT-29; 30 days after inoculation. How it is done:
Tumor growth was measured during a 30-day period. Tumor volume, one week after inoculation and before PF administration, was of 56+15 mm3. A. […] B. Growth profile of control ([…]) and t-PTER- and QUER (∘) (20 mg of each PF/kg)-treated HT-29-bearing mice. Data are means±S.D. of 18-20 mice per group. The significant test refers, for all groups, to the comparison between PTER and/or QUER and controls (treated with physiological saline) (*P<0.01). For HT-29 cancer cell xenograft experiments, female nu/nu nude mice (ages 6 to 8 weeks; […] Tumor volume was calculated based on two dimensions, measured using calipers, and was expressed in cubic millimeters according to the formula: […] For histological analysis the surgical and xenograft tissue samples were fixed in 4% formaldehyde, paraffin embedded, and stained with hematoxilin & eosin and safran. […] This study was conducted in compliance with international laws and policies (EEC Directive 86/609, OJ L 358. 1, Dec. 12, 1987; and NIH Guide for the Care and Use of Laboratory Animals, NIH Publ. No. 85-23, 1985). X rays were administered using a […] SL75 linear accelerator from Philips. For this purpose each mouse was anesthetized with nembutal (50 mg/kg i.p.), and fixed on a Perspex platform.

Series [2] concerns SOD2. Briefly: SOD activity in xenograft samples. The series is classed as in vivo, human. How it is done: (§1) Tumor tissue was homogenized in 0.1M phosphate buffer (pH 7.2) at 4° C.
(§2) Superoxide dismutase (SOD) activity was measured as described by Flohé and Otting (14), using 2 mM cyanide in the assay medium to distinguish mangano-type enzyme (SOD2) from the cuprozinc type (SOD1).

Series [3] deals with SOD1. Briefly: SOD activity in xenograft samples. The series is classed as in vivo, human. Conditions: single treatment (PQ or SOD2-AS). The method, then: as §1, §2
The subject of series [4] is bcl-2. Briefly: Bcl-2 protein enzyme immunoassay in xenograft samples. It counts as in vivo, human. Conditions: single treatment (PQ or SOD2-AS). The source says:
(§3) The Tet-off gene expression system (Clontech, Palo Alto, Calif.) was used, as previously reported (17), to insert the human bcl-2 gene and for transfection into HT-29 cells following manufacturer's instructions. Bcl-2 protein was quantitated in the soluble cytosolic fraction by enzyme immunoassay (17) using a monoclonal antibody-based assay from Sigma (one unit of Bcl-2 was defined as the amount of Bcl-2 protein in 1000 non-transfected HT-29 cells).

Series [5] deals with HT-29/Tet-bcl-2 xenografts. Briefly: HT-29/Tet-bcl-2 xenograft growth. It counts as in vivo, mice. Conditions: Table 3B, 30 days after inoculation. The method, then:
For HT-29 cancer cell xenograft experiments, female nu/nu nude mice (ages 6 to 8 weeks; Charles Rivers Laboratories, Wilmington, Mass.) were inoculated s.c. with 5×10^6 HT-29 or HT-29-GFP cells per mouse. Tumor volume was calculated based on two dimensions, measured using calipers, and was expressed in cubic millimeters according to the formula: V=0.5a×b2, where a and b are the long and the short diameters of the tumor, respectively. For histological analysis the surgical and xenograft tissue samples were fixed in 4% formaldehyde, paraffin embedded, and stained with hematoxilin & eosin and safran. Mice were monitored for at least 30 days after inoculation, and tumor measurements were taken on day 5, 10, 15, 20, 25, and 30. This study was conducted in compliance with international laws and policies (EEC Directive 86/609, OJ L 358. 1, Dec. 12, 1987; and NIH Guide for the Care and Use of Laboratory Animals, NIH Publ. No. 85-23, 1985). […]
as §3

The subject of series [6] is NF-κB p50/65. Briefly: NF-κB DNA binding ELISA in HT-29 nuclear extracts. The series is classed as cell-based, human. Conditions: HT-29 cells; p65 siRNA transfection or 10 μg DHMEQ/ml, 2 h after removing the inhibitor. How it is done: HT-29 cells were cultured and treated with PFs as indicated in the caption to FIG. 1. (A) NF-κB binding to DNA (measured 3 h after the last PF addition). Recombinant human TNFα (0.5 nM, Sigma, St. Louis, Mo.) was added 6 h before the last PF addition. IκBα (B) and P-IκBα (C) analysis by western blot (lane 1, TNFα; lane 2, control; lane 3, […]). Relative densitometric intensities for protein bands from western blots of IκBα and P-IκBα) were normalized to β-actin (black bar, TNFα; white bar, control; grey bar, […]). […] Transfection of siRNA was performed as explained under “Materials and Methods”. (A) western blot analysis of p65 in cells transfected with p65 siRNA, or NS siRNA. For comparison NF-κB binding to DNA (B) and bcl-2 expression (RT-PCR) (C) were determined in HT-29 cells transfected with p65 siRNA or treated with dehydroxymethylepoxyquinomicin (DHMEQ). […] Nuclear extract were prepared as previously described (18). An enzyme linked immunosorbent assay (ELISA) was performed in line with the manufacturer's protocol for a commercial kit (Chemiluminiscent NF-κB p50/65 Transcription Factor Assay, Oxford Biomedical Research, Oxford, Mich.). […] The DNA bound NF-κB is selectively recognized by the primary antibody, which, in turn, is detected by the secondary antibodyalkaline phosphatase conjugate. […]

Series [7] deals with bcl-2. Briefly: bcl-2 expression (RT-PCR) in cultured HT-29 cells. It counts as cell-based, human. Particulars: p65 siRNA transfection or 10 μg DHMEQ/ml, 12 h after removing the inhibitor. How it is done:
Transfection of siRNA was performed as explained under “Materials and Methods”. (A) western blot analysis of p65 in cells transfected with p65 siRNA, or NS siRNA. For comparison NF-κB binding to DNA (B) and bcl-2 expression (RT-PCR) (C) were determined in HT-29 cells transfected with p65 siRNA or treated with dehydroxymethylepoxyquinomicin (DHMEQ). For this purpose cultured HT-29 cells (24 h after seeding) were incubated in the absence or in the presence of 10 μg DHMEQ/ml, and NF-κB activation and bcl-2 expression were measured 2 h and 12 h, respectively, after removing the inhibitor.
Total RNA was isolated using the trizol kit from Invitrogen and following manufacturer's instructions. cDNA was obtained using a random hexamer primer and a MultiScribe Reverse Transcriptase kit as described by the manufacturer (TaqMan RT Reagents, Applied Biosystems, Foster City, Calif.). […]
Real-time quantitation of the mRNA relative to GAPDH was performed with a SYBR Green I assay, and a iCycler detection system (Biorad, Hercules, Calif.). […] The increase in fluorescence was measured in real time during the extension step. The threshold cycle (CT) was determined, and then the relative gene expression was expressed as: fold change=2^−Δ(ΔCT), where ΔCT=CT target−CT GAPDH, and Δ (ΔCT)=ΔCT treated−ΔCT control. […]

Marks after values point to notes of the source that are not given here.

For the molecule “SOD2-AS: Fully phosphorothioated 21-mer human SOD2 antisense oligodeoxynucleotide, 5′-GGAACCUCACAUCAACGCGCA-3′ (DNA, all phosphorothioate, methylation of C and T or U not given here)”, the Tumor volume is reported as 2337 ± 266^b mm^3 in series [1] and 2942 ± 387^ab mm^3 in series [5]. Also, the SOD2 activity was 0.33 ± 0.12 Units/mg protein in series [2] (HT-29/tet-Bcl-2 xenograft, single treatment (PQ or SOD2-AS)) and 0.27 ± 0.056^b Units/mg protein in series [2] (HT-29 xenograft, single treatment (PQ 20 mg each/kg or SOD2-AS 5 mg/kg each 3 days)). The SOD1 activity is reported as 6.3 ± 0.48 Units/mg protein in series [3] (HT-29/tet-Bcl-2 xenograft) and 5.77 ± 0.62 Units/mg protein in series [3] (HT-29 xenograft). Besides, the Bcl-2 levels in series [4] (HT-29/tet-Bcl-2 xenograft) was 81 ± 9^a Units/mg protein; in series [4] (HT-29 xenograft), 19 ± 3 Units/mg protein.

In the case of `O=C(NC1=CC(=O)[C@H]2O[C@H]2[C@H]1O)c1ccccc1O` [DHMEQ, dehydroxymethylepoxyquinomicin], the “NF-κB binding to DNA” value in series [6] is on record as “significant decrease”. Also, in series [7], the bcl-2 expression entry is reported as “significant decrease”.

(Values after patent US20110136751A1, “Use of Polyphenols in the Treatment of Cancer” (Green Molecular, priority 2009, published 2011).)
